Test results: patent publication US20240269139A1, “COMPOUNDS FOR TARGETED PROTEIN DEGRADATION OF KINASES” (DANA-FARBER CANCER INSTITUTE, INC., priority 2020, published 2024)
Values joined by “and” are separate entries in the source; they are usually repeats but may differ in a detail not shown here. Identical values can stand only once. Like-named read-outs stand apart in the source and are kept apart here.

How the values were obtained:
Type in all cases: cell-based
[1] = target: protein kinases (human kinome) (Homo sapiens, UniProt P11802)
[2] = tested on: protein kinases (human kinome); conditions: for logFC of SRC: Accession P12931-2; for logFC of FER: FER P16591-3; for logFC LCK: accession P06239-3; for logFC PTK2B: accession Q14289-2
[3] = target: protein kinases (human kinome) (Homo sapiens, UniProt P53671); conditions: for logFC LIMK2: LIMK2 (P53671), down; for logFC of LIMK2: LIMK2 P53671
[4] = target: T1, protein kinases (human kinome) (Homo sapiens, UniProt O75385); conditions: for logFC: ULK1 (O75385) protein abundance, degrader vs DMSO, down; for logFC ULK1: ULK1 O75385, experiment wp160
T1 sequence (O75385 1-1050): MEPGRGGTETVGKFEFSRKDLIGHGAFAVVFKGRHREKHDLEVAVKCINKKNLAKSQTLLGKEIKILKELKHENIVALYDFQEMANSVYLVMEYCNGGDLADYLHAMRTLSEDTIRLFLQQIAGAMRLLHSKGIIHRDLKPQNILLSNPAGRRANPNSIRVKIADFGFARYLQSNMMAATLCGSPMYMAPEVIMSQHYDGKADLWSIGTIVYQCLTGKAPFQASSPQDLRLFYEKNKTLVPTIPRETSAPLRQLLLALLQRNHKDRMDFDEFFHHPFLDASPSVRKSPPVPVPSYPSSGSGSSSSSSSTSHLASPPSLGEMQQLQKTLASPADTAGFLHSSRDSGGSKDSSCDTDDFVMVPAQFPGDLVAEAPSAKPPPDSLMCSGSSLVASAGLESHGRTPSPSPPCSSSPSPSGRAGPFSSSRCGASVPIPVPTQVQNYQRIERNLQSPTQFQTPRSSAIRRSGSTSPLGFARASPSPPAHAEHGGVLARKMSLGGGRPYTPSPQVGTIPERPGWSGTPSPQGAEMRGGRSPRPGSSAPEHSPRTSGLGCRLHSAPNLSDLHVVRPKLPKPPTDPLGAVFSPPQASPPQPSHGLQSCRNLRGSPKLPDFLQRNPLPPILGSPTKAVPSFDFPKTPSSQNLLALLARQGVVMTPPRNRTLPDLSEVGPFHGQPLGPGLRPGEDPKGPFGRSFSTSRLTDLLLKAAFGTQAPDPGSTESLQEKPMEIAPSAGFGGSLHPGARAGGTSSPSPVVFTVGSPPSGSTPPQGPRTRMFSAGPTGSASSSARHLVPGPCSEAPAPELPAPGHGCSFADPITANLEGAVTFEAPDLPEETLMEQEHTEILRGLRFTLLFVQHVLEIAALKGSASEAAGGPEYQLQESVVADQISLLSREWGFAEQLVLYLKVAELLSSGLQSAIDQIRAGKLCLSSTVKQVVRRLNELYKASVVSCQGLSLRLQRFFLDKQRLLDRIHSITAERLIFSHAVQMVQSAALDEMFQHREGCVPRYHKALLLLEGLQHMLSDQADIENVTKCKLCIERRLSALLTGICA

[5] = target: protein kinases (human kinome) (Homo sapiens, UniProt P51451); conditions: for logFC BLK: BLK (P51451), direction down; for logFC of BLK (P51451): down
[6] = Experiment wp107, direction down
[7] = Experiment wp117, direction down
[8] = experiment wp045, direction of change down
[9] = experiment wp103, direction of change down
[10] = experiment wp107, direction of change down
[11] = experiment wp117, direction of change down

protein kinases (human kinome) (Homo sapiens, UniProt P51451), sequence (P51451 whole entry): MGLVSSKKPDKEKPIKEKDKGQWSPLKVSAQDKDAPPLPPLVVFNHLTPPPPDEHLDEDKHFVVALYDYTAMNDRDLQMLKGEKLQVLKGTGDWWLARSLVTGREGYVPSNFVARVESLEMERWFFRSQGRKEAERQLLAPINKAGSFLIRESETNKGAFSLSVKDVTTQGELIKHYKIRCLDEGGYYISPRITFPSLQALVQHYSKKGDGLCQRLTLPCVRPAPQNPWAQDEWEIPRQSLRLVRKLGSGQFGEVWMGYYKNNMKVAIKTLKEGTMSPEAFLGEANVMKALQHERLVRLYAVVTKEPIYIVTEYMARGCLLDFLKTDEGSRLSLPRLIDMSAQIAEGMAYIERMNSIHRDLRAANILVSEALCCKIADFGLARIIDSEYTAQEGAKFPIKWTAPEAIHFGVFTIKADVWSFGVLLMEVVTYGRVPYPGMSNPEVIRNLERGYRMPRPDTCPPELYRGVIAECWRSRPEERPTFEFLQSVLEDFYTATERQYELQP
protein kinases (human kinome) (Homo sapiens, UniProt P11802), sequence (P11802 whole entry): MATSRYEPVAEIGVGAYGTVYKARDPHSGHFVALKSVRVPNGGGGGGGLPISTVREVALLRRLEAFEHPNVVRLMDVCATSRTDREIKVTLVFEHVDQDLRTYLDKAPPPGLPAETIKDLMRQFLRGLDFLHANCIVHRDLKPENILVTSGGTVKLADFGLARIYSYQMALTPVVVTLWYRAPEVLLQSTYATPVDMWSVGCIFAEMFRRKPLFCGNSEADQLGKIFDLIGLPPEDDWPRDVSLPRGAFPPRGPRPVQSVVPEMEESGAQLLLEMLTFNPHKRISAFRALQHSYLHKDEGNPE
protein kinases (human kinome) (Homo sapiens, UniProt P53671), sequence (P53671 whole entry): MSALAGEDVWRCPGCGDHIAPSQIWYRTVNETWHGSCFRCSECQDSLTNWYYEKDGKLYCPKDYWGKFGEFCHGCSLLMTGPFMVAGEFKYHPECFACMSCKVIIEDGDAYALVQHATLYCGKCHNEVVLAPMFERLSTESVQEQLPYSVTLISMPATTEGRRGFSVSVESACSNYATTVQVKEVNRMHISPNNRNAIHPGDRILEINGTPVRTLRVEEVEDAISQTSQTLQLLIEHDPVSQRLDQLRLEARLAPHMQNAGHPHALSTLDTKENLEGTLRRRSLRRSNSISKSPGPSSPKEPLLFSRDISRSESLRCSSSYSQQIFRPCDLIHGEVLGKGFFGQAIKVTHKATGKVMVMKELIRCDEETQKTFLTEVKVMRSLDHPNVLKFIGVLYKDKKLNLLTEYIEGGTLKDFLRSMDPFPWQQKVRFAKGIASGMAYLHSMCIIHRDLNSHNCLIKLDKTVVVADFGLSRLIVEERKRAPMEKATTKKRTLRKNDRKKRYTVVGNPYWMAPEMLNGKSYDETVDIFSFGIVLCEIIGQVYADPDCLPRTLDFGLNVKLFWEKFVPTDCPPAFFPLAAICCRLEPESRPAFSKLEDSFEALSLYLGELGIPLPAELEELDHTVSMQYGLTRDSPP

## Cc1ccc(NC(=O)c2cccc(C(F)(F)F)c2)cc1N1Cc2cnc(Nc3ccc(N4CCN(Cc5cn(CCCCCOc6cccc7c6C(=O)N(C6CCC(=O)NC6=O)C7=O)nn5)CC4)nc3)nc2N(C)C1=O (stereo not drawn) [DB0646, N-(3-(7-((6-(4-((1-(5-((2-(2,6-Dioxopiperidin-3-yl)-1,3-dioxoisoindolin-4-yl)oxy)pentyl)-1H-1,2,3-triazol-4-yl)methyl)piperazin-1-v)pyridin-3-yl)amino)-1-methyl-2-oxo-1,4-dihydropyrimido[4,5-d]pyrimidin-3(2H)-yl)-4-methylphenyl)-3-(trifluoromethyl)benzamide]
[1]; experiment wp045
  logFC CDK4 (P11802): −0.9012
[1]; experiment wp103
  logFC CDK4 (P11802): −0.5015
[1]; experiment wp107
  logFC CDK4 (P11802): −0.5565
[1]; experiment wp117
  logFC CDK4 (P11802): −0.6673
[1]; experiment wp152
  logFC CDK4 (P11802): −0.736
[1]; experiment wp160, 4 hr
  logFC CDK4 (P11802): −0.7263
[1]; experiment wp160, 8 hr
  logFC CDK4 (P11802): −1.114
[2]; Accession P06241-2, experiment wp107
  logFC FYN: −0.3999
[2]; Accession P06241-2, experiment wp160, 4 hr
  logFC FYN: −0.3922
[2]; experiment wp045
  logFC of SRC: −0.4152
  logFC MAP3K20 (Q9NYL2-2): −1.182
[2]; experiment wp105
  logFC of SRC: −0.4412
  logFC of LYN (P07948-2): −0.985
  logFC of MAPK8 (P45983-3): −0.4094
[2]; experiment wp107
  logFC of SRC: −0.4274
  logFC MAP3K20 (Q9NYL2-2): −0.7825
[2]; experiment wp117
  logFC of SRC: −0.3839
  logFC MAP3K20 (Q9NYL2-2): −0.6701
[2]; CDK11B P21127-3, experiment wp103
  logFC: −0.3334
[2]; Experiment wp045
  logFC MAP3K20 (Q9NYL2-2): −1.182
[2]; Experiment wp045, direction down
  logFC MAPK8 (P45983-4): −0.9774
[2]; Experiment wp103
  logFC MAP3K20 (Q9NYL2-2): −0.7004
  logFC of MAPK8 (P45983-2): −0.6109
[2]; Experiment wp103, direction down
  logFC MAPK8 (P45983-2): −0.6109
[2]; Experiment wp105, direction down
  logFC MAPK8 (P45983-3): −0.4094
[2]; Experiment wp107
  logFC MAP3K20 (Q9NYL2-2): −0.7825
  logFC of MAPK8 (P45983-2): −0.723
[2]; [6]
  logFC MAPK8 (P45983-2): −0.723
  logFC TNK2 (Q07912-3): −0.8258
[2]; Experiment wp114
  logFC MAP3K20 (Q9NYL2-2): −0.8962
[2]; Experiment wp117
  logFC MAP3K20 (Q9NYL2-2): −0.6701
  logFC of MAPK8 (P45983-2): −0.7835
[2]; [7]
  logFC MAPK8 (P45983-2): −0.7835
  logFC TNK2 (Q07912-3): −0.9833
[2]; Experiment wp160, 4 hr, direction down
  logFC MAPK8 (P45983-3): −0.611
[2]; Experiment wp160, 8 hr, direction down
  logFC MAPK8 (P45983-3): −1.01
[2]; FER (P16591-3), experiment wp114, direction down
  logFC: −0.5921
[2]; FER (P16591-3), experiment wp172, direction down
  logFC: −1.014
[2]; experiment wp114
  logFC of FER: −0.5921
  logFC MAP3K20 (Q9NYL2-2): −0.8962
[2]; experiment wp172
  logFC of FER: −1.014
[2]; FYN P06241-2, experiment wp107
  logFC FYN: −0.3999
[2]; FYN P06241-2, experiment wp160, 4 hr
  logFC FYN: −0.3922
[2]; GK P32189-3, experiment wp114
  logFC: −0.3632
[2]; [8]
  logFC LCK: −0.5631
  logFC LCK (P06239-3): −0.5631
[2]; [9]
  logFC LCK: −0.4496
  logFC CDK11B (P21127-3): −0.3334
  logFC LCK (P06239-3): −0.4496
[2]; [10]
  logFC LCK: −0.3963
  logFC PTK2B: −2.484
  logFC LCK (P06239-3): −0.3963
[2]; [11]
  logFC LCK: −0.4202
  logFC PTK2B: −2.583
  logFC LCK (P06239-3): −0.4202
[2]; LIMK2 (P53671-3), experiment wp105, direction down
  logFC: −0.7299
[2]; LIMK2 P53671-3, experiment wp105
  logFC of LIMK2: −0.7299
[2]; LYN (P07948-2), experiment wp105
  logFC: −0.985
[2]; MAPK8 P45983-4, experiment wp045
  logFC MAPK8: −0.9774
[2]; MAPK14, accession Q16539-2, experiment wp105, direction of change down
  logFC MAPK14: −0.5822
[2]; MAPK14, accession Q16539-2, experiment wp117, direction of change down
  logFC MAPK14: −0.6436
[2]; MAPK14, accession Q16539-2, experiment wp160, 4 hr, direction of change down
  logFC MAPK14: −0.7051
[2]; MAPK14, accession Q16539-2, experiment wp160, 8 hr, direction of change down
  logFC MAPK14: −1.092
[2]; MAPK14 Q16539-2, experiment wp105
  logFC MAPK14: −0.5822
[2]; MAPK14 Q16539-2, experiment wp117
  logFC MAPK14: −0.6436
[2]; MAPK14 Q16539-2, experiment wp160, 4 hr
  logFC MAPK14: −0.7051
[2]; MAPK14 Q16539-2, experiment wp160, 8 hr
  logFC MAPK14: −1.092
[2]; MOLT-4, KELLY, HEK293T
  targets with significantly different degrader efficacy in the different cell lines with no obvious difference in protein expression: CSK, MAPK9
[2]; PTK2B (Q14289-2), experiment wp107, direction down
  logFC: −2.484
[2]; PTK2B (Q14289-2), experiment wp117, direction down
  logFC: −2.583
[2]; SRC (P12931-2) protein abundance, degrader vs DMSO, down
  logFC: −0.4152 and −0.4412 and −0.4274 and −0.3839
[2]; TAOK2 (Q9UL54-2), experiment wp160, 8 hr
  logFC: −0.5973
[2]; TNK2 (Q07912-3), experiment wp107, direction down
  logFC: −0.8258
[2]; TNK2 (Q07912-3), experiment wp117, direction down
  logFC: −0.9833
[2]; experiment wp103
  logFC MAP3K20 (Q9NYL2-2): −0.7004
[2]; experiment wp160, 4 hr
  logFC of MAPK8 (P45983-3): −0.611
[2]; experiment wp160, 8 hr
  logFC of MAPK8 (P45983-3): −1.01
[2]; experiment wp160, 8 hr, direction of change down
  logFC TAOK2 (Q9UL54-2): −0.5973
[2]; number of degraded kinases per library compound
  Total no. kinase hits: 33
[3]; experiment wp045
  logFC LIMK2: −1.648
  logFC of LIMK2: −1.648
[3]; experiment wp103
  logFC LIMK2: −1.569
  logFC of LIMK2: −1.569
[3]; experiment wp107
  logFC LIMK2: −1.738
  logFC of LIMK2: −1.738
[3]; experiment wp117
  logFC LIMK2: −1.565
  logFC of LIMK2: −1.565
[3]; experiment wp152
  logFC LIMK2: −1.565
  logFC of LIMK2: −1.565
[3]; experiment wp172
  logFC LIMK2: −1.095
  logFC of LIMK2: −1.095
[4]; 4 hr
  logFC: −0.3412
  logFC ULK1: −0.3412
[4]; 8 hr
  logFC: −0.3989
  logFC ULK1: −0.3989
[5]; experiment wp103
  logFC BLK: −1.19
[5]; experiment wp107
  logFC BLK: −1.259
[5]; experiment wp117
  logFC BLK: −1.275
[5]; experiment wp152
  logFC BLK: −1.511
[5]; experiment wp160, 2 hr
  logFC BLK: −0.5315
[5]; experiment wp160, 4 hr
  logFC BLK: −1.092
[5]; experiment wp160, 8 hr
  logFC BLK: −1.434
[5]; BLK P51451, experiment wp045
  logFC of BLK: −1.314
[5]; Experiment wp045
  logFC of BLK (P51451): −1.314
[5]; Experiment wp103
  logFC of BLK (P51451): −1.19
[5]; Experiment wp107
  logFC of BLK (P51451): −1.259
[5]; Experiment wp117
  logFC of BLK (P51451): −1.275
[5]; Experiment wp152
  logFC of BLK (P51451): −1.511
[5]; Experiment wp160, 2 hr
  logFC of BLK (P51451): −0.5315
[5]; Experiment wp160, 4 hr
  logFC of BLK (P51451): −1.092
[5]; Experiment wp160, 8 hr
  logFC of BLK (P51451): −1.434
